Assays:
rat VR1 [1] = target: T1, rat VR1 (Rattus norvegicus, UniProt O35433); experiment: [3H]resiniferatoxin (RTX) competition binding assay, VR1-transfected CHO cells
T1 construct: expressed in transfected cells
How it was run: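 Competition with [3H]RTX (50-100 pM) ran 60 min at 37° C using whole VR1-induced CHO cells in BSA-containing DPBS, nonspecific defined by 100 nM cold RTX. After centrifugation, pellet radioactivity counted by scintillation; Hill fits gave Ki and cooperativity.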

rat VR1 [2] = target: T1, rat VR1; experiment: 45Ca2+-uptake assay in CHO/VR1 cells, antagonism of capsaicin-stimulated uptake; format: cell-based; settings: 45Ca2+ uptake stimulated by 50 nM capsaicin
[3] = competition with [3H]RTX, rat VR1 in CHO cells, read-out: Ki (nM) Binding Affinity

T1 sequence (O35433 whole entry): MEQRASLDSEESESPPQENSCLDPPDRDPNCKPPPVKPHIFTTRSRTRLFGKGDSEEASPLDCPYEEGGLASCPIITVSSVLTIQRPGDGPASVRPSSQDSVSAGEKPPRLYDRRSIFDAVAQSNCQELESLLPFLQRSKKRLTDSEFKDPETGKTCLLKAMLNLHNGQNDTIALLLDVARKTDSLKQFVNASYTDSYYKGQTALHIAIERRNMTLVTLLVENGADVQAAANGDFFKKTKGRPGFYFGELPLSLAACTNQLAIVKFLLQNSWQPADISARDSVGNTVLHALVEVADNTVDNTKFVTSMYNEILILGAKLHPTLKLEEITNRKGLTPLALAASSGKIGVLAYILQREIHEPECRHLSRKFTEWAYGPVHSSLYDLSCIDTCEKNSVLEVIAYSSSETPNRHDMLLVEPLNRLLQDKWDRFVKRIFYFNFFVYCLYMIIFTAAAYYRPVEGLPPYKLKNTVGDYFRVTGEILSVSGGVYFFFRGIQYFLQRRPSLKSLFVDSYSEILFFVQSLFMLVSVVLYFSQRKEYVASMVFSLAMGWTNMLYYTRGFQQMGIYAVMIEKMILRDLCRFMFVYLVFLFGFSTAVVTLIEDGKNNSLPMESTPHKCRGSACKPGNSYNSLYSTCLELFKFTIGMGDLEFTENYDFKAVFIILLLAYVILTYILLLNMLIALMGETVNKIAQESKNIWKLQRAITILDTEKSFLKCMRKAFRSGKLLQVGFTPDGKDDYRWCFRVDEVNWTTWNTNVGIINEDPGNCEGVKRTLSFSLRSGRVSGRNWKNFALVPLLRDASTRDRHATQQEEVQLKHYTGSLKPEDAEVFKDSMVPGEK

C[C@H](C(=O)N[C@@H](COC(=O)C(C)(C)C)Cc1ccccc1)c1ccc(NS(C)(=O)=O)c(F)c1 [6-1, N—[(R)-1-Benzyl-2-(pivaloyloxy)ethyl]-(S)-2-[3-fluoro-4-(methylsulfonylamino)phenyl]propionamide]
melting point: 115 °C | Ki (rat VR1 [1]; [3]): 12800 nM | Ki (rat VR1 [2]): 1470 nM

C[C@H](C(=O)NC[C@H](COC(=O)C(C)(C)C)Cc1ccccc1)c1ccc(NS(C)(=O)=O)c(F)c1 [6-5, N-[(2R)-2-Benzyl-3-(pivaloyloxy)propyl]-(2S)-2-[3-fluoro-4-(methylsulfonylamino)phenyl]propionamide]
melting point: 40 to 42 °C | Ki (rat VR1 [1]; [3]): 43.4 nM | Ki (rat VR1 [2]): 8.55 nM

C[C@H](C(=O)NC[C@H](COC(=O)C(C)(C)C)Cc1ccc(C(C)(C)C)cc1)c1ccc(NS(C)(=O)=O)c(F)c1 [6-9, N-[(2R)-2-(4-t-Butylbenzyl)-3-(pivaloyloxy)propyl]-(2S)-2-[3-fluoro-4-(methylsulfonylamino)phenyl]propionamide]
melting point: 44 to 46 °C | Ki (rat VR1 [1]): 4.24 nM | Ki (rat VR1 [2]): 0.58 nM

C[C@H](C(=O)NC[C@@H](COC(=O)C(C)(C)C)Cc1ccc(C(C)(C)C)cc1)c1ccc(NS(C)(=O)=O)c(F)c1 [6-10, N-[(2S)-2-(4-t-Butylbenzyl)-3-(pivaloyloxy)propyl]-(2S)-2-[3-fluoro-4-(methylsulfonylamino)phenyl]propionamide]
melting point: 43 to 45 °C | Ki (rat VR1 [1]): 6.58 nM | Ki (rat VR1 [2]): 10.9 nM

C[C@@H](C(=O)NC[C@@H](COC(=O)C(C)(C)C)Cc1ccc(C(C)(C)C)cc1)c1ccc(NS(C)(=O)=O)c(F)c1 [6-11, N-[(2S)-2-(4-t-Butylbenzyl)-3-(pivaloyloxy)propyl]-(2R)-2-[3-fluoro-4-(methylsulfonylamino)phenyl]propionamide]
melting point: 44 to 46 °C | Ki (rat VR1 [1]; [3]): 63.8 nM | Ki (rat VR1 [2]): 142 nM

C[C@@H](C(=O)NC[C@H](COC(=O)C(C)(C)C)Cc1ccc(C(C)(C)C)cc1)c1ccc(NS(C)(=O)=O)c(F)c1 [6-12, N-[(2R)-2-(4-t-Butylbenzyl)-3-(pivaloyloxy)propyl]-(2R)-2-[3-fluoro-4-(methylsulfonylamino)phenyl]propionamide]
melting point: 43 to 45 °C | Ki (rat VR1 [1]; [3]): 53 nM | Ki (rat VR1 [2]): 30.3 nM

C[C@H](C(=O)NC[C@H](COC(=O)C(C)(C)C)Cc1ccc(C(C)(C)C)cc1)c1ccc(NS(C)(=O)=O)c(Cl)c1 [6-13, N-[(2R)-2-(4-t-Butylbenzyl)-3-(pivaloyloxy)propyl]-(2S)-2-[3-chloro-4-(methylsulfonylamino)phenyl]propionamide]
melting point: 61 to 63 °C | Ki (rat VR1 [1]; [3]): 1.83 nM | Ki (rat VR1 [2]): 5.23 nM

C[C@H](C(=O)NC[C@@H](COC(=O)C(C)(C)C)Cc1ccc(C(C)(C)C)cc1)c1ccc(NS(C)(=O)=O)c(Cl)c1 [6-14, N-[(2S)-2-(4-t-Butylbenzyl)-3-(pivaloyloxy)propyl]-(2S)-2-[3-chloro-4-(methylsulfonylamino)phenyl]propionamide]
melting point: 55 to 57 °C | Ki (rat VR1 [1]; [3]): 3.29 nM | Ki (rat VR1 [2]): 12.1 nM

Cc1ccc(CC(CNC(=O)C(C)(C)c2ccc(NS(C)(=O)=O)cc2)COC(=O)C(C)(C)C)cc1C (stereo not drawn) [9-1, N-[2-(3,4-Dimethylbenzyl)-3-pivaloyloxypropyl]-2-[4-(methylsulfonylamino)phenyl]-2-methylpropionamide]
melting point: 126 to 130 °C | Ki (rat VR1 [1]; [3]): 372 nM | Ki (rat VR1 [2]): 103 nM

Cc1ccc(CC(CNC(=O)C(C)(C)c2ccc(NS(C)(=O)=O)c(F)c2)COC(=O)C(C)(C)C)cc1C (stereo not drawn) [9-2, N-[2-(3,4-Dimethylbenzyl)-3-pivaloyloxypropyl]-2-[3-fluoro-4-(methylsulfonylamino)phenyl]-2-methylpropionamide]
melting point: 53 to 55 °C | Ki (rat VR1 [1]): 276 nM | Ki (rat VR1 [2]): 65.4 nM

COc1cc(C(C)(C)C(=O)NCC(COC(=O)C(C)(C)C)Cc2ccc(C)c(C)c2)ccc1NS(C)(=O)=O (stereo not drawn) [9-3, N-[2-(3,4-Dimethylbenzyl)-3-pivaloyloxypropyl]-2-[3-methoxy-4-(methylsulfonylamino)phenyl]-2-methylpropionamide]
melting point: 100 to 103 °C | Ki (rat VR1 [1]; [3]): 152 nM | Ki (rat VR1 [2]): 133 nM

Cc1ccc(CCCNC(=O)C(C)(C)c2ccc(NS(C)(=O)=O)cc2)cc1C [9-4, N-[3-(3,4-Dimethylphenyl)propyl]-2-[4-(methylsulfonylamino)phenyl]-2-methylpropionamide]
melting point: 138 to 139 °C | Ki (rat VR1 [1]): 1700 nM | Ki (rat VR1 [2]): 573 nM

Cc1ccc(CCCNC(=O)C(C)(C)c2ccc(NS(C)(=O)=O)c(F)c2)cc1C [9-5, N-[3-(3,4-Dimethylphenyl)propyl]-2-[3-fluoro-4-(methylsulfonylamino)phenyl]-2-methylpropionamide]
melting point: 145 to 146 °C | Ki (rat VR1 [1]): 960 nM | Ki (rat VR1 [2]): 418 nM

COc1cc(C(C)(C)C(=O)NCCCc2ccc(C)c(C)c2)ccc1NS(C)(=O)=O [9-6, N-[3-(3,4-Dimethylphenyl)propyl]-2-[3-methoxy-4-(methylsulfonylamino)phenyl]-2-methylpropionamide]
melting point: 93 to 95 °C | Ki (rat VR1 [1]): 838 nM | Ki (rat VR1 [2]): 366 nM

CC(C)(C)c1ccc(CNC(=O)C(C)(C)c2ccc(NS(C)(=O)=O)cc2)cc1 [9-7, N-(4-tert-Butylbenzyl)-2-[4-(methylsulfonylamino)phenyl]-2-methylpropionamide]
melting point: 141 to 143 °C | Ki (rat VR1 [1]): 425 nM | Ki (rat VR1 [2]): 2550 nM

CC(C)(C)c1ccc(CNC(=O)C(C)(C)c2ccc(NS(C)(=O)=O)c(F)c2)cc1 [9-8, N-(4-tert-Butylbenzyl)-2-[3-fluoro-4-(methylsulfonylamino)phenyl]-2-methylpropionamide]
melting point: 48 to 51 °C | Ki (rat VR1 [1]; [3]): 1070 nM | Ki (rat VR1 [2]): 467 nM

Cc1ccc(CC(CNC(=O)C2(c3ccc(NS(C)(=O)=O)cc3)CC2)COC(=O)C(C)(C)C)cc1C (stereo not drawn) [12-1, N-[2-(3,4-Dimethylbenzyl)-3-pivaloyloxypropyl]-1-[4-(methylsulfonylamino)phenyl]cyclopropanecarboxamide]
melting point: 54 to 56 °C | Ki (rat VR1 [1]; [3]): 396 nM | Ki (rat VR1 [2]): 197 nM

Cc1ccc(CC(CNC(=O)C2(c3ccc(NS(C)(=O)=O)c(F)c3)CC2)COC(=O)C(C)(C)C)cc1C (stereo not drawn) [12-2, N-[2-(3,4-Dimethylbenzyl)-3-pivaloyloxypropyl]-1-[3-fluoro-4-(methylsulfonylamino)phenyl]cyclopropanecarboxamide]
melting point: 55 to 56 °C | Ki (rat VR1 [1]; [3]): 1580 nM | Ki (rat VR1 [2]): 567 nM

COc1cc(C2(C(=O)NCC(COC(=O)C(C)(C)C)Cc3ccc(C)c(C)c3)CC2)ccc1NS(C)(=O)=O (stereo not drawn) [12-3, N-[2-(3,4-Dimethylbenzyl)-3-pivaloyloxypropyl]-1-[3-methoxy-4-(methylsulfonylamino)phenyl]cyclopropanecarboxamide]
melting point: 66 to 68 °C | Ki (rat VR1 [1]; [3]): 238 nM | Ki (rat VR1 [2]): 117 nM

Cc1ccc(CCCNC(=O)C2(c3ccc(NS(C)(=O)=O)cc3)CC2)cc1C [12-4, N-[3-(3,4-Dimethylphenyl)propyl]-1-[4-(methylsulfonylamino)phenyl]cyclopropanecarboxamide]
melting point: 127 to 128 °C | Ki (rat VR1 [1]): 1740 nM | Ki (rat VR1 [2]): 1100 nM

COc1cc(C2(C(=O)NCCCc3ccc(C)c(C)c3)CC2)ccc1NS(C)(=O)=O [12-6, N-[3-(3,4-Dimethylphenyl)propyl]-1-[3-methoxy-4-(methylsulfonylamino)phenyl]cyclopropanecarboxamide]
melting point: 88 to 89 °C | Ki (rat VR1 [1]): 1700 nM | Ki (rat VR1 [2]): 1240 nM

CC(C)(C)c1ccc(CNC(=O)C2(c3ccc(NS(C)(=O)=O)cc3)CC2)cc1 [12-7, N-(4-tert-Butylbenzyl)-1-[4-(methylsulfonylamino)phenyl]cyclopropanecarboxamide]
melting point: 200 to 203 °C | Ki (rat VR1 [1]; [3]): 608 nM | Ki (rat VR1 [2]): 1760 nM

COc1cc(C2(C(=O)NCc3ccc(C(C)(C)C)cc3)CC2)ccc1NS(C)(=O)=O [12-9, N-(4-tert-Butylbenzyl)-1-[3-methoxy-4-(methylsulfonylamino)phenyl]cyclopropanecarboxamide]
melting point: 200 to 203 °C | Ki (rat VR1 [1]; [3]): 745 nM | Ki (rat VR1 [2]): 2250 nM

CC(NC(=S)NCc1ccc(C(C)(C)C)cc1)c1ccc(NS(C)(=O)=O)c(F)c1 (stereo not drawn) [15-2, N-(4-t-Butylbenzyl)-N′-{1-[3-fluoro-4-(methylsulfonylamino)phenyl]ethyl}thiourea]
melting point: 165 °C | Ki (rat VR1 [1]; [3]): 54 nM | Ki (rat VR1 [2]): 9.16 nM

COc1cc(C(C)NC(=S)NCc2ccc(C(C)(C)C)cc2)ccc1NS(C)(=O)=O (stereo not drawn) [15-3, N-(4-t-Butylbenzyl)-N′-{1-[3-methoxy-4-(methylsulfonylamino)phenyl]ethyl}thiourea]
melting point: 80 to 82 °C | Ki (rat VR1 [1]; [3]): 66.5 nM | Ki (rat VR1 [2]): 28.6 nM

COC(=O)c1cc(C(C)NC(=S)NCc2ccc(C(C)(C)C)cc2)ccc1NS(C)(=O)=O (stereo not drawn) [15-4, N-(4-t-Butylbenzyl)-N′-{1-[3-(methoxycarbonyl)-4-(methylsulfonylamino)phenyl]ethyl}thiourea]
melting point: 132 to 135 °C | Ki (rat VR1 [1]): 163 nM | Ki (rat VR1 [2]): 65.8 nM

C[C@@H](NC(=S)NC[C@H](COC(=O)C(C)(C)C)Cc1ccccc1)c1ccc(NS(C)(=O)=O)cc1 [18-1, N-[(2R)-2-Benzyl-3-(pivaloyloxy)propyl]-N′-{(1R)-1-[4-(methylsulfonylamino)phenyl]ethyl}thiourea]
melting point: 62 to 64 °C | Ki (rat VR1 [1]): 22.7 nM | Ki (rat VR1 [2]): 44.5 nM

C[C@@H](NC(=S)NC[C@@H](COC(=O)C(C)(C)C)Cc1ccccc1)c1ccc(NS(C)(=O)=O)cc1 [18-2, N-[(2S)-2-Benzyl-3-(pivaloyloxy)propyl]-N′-{(1R)-1-[4-(methylsulfonylamino)phenyl]ethyl}thiourea]
melting point: 58 to 62 °C | Ki (rat VR1 [1]): 19.4 nM | Ki (rat VR1 [2]): 89 nM
